Experimental data reported in paper PMC11480411, “Mucosal sugars delineate pyrazine vs pyrazinone autoinducer signaling in Klebsiella oxytoca” (Nature Communications, 2024).
Values joined by “and” are separate entries in the source; they are usually repeats but may differ in a detail not shown here. Equal values may be shown once.

How the values were obtained:
[1] = test system: ∆pyr K. oxytoca; assay: RNA-seq of compound-supplemented ∆pyr K. oxytoca; format: cell-based, Klebsiella oxytoca ATCC 8724; conditions: 10 µM
Experimental: A ∆pyr K. oxytoca glycerol stock was streaked onto an LB-Agar plate supplemented with spectinomycin (50 µg/mL) and incubated aerobically at 30°C for 24 h in a stationary incubator. Single colonies were grown for 24 h aerobically in 5 mL of M9 minimal medium supplemented with 5 g/L casamino acids and 0.4% D-galactose at 30 °C and 250 rpm. Each ∆pyr K. oxytoca overnight culture was diluted 1:1000 into fresh medium (5 mL) and incubated aerobically at 30 °C and 250 rpm to mid-exponential growth (OD600 = 0.8). These conditions abrogated both detectable pyrazine and pyrazinone production. At this point, 10 µM of compound in DMSO, were added to the cultures; an equal volume of DMSO was added to cultures without compound as a solvent vehicle control. The cultures were incubated under aerobic conditions with the compounds for one hour at 30 °C and at 250 rpm. After incubation, the cultures were centrifuged, the supernatants were decanted, and the cell pellets were quickly resuspended in 5 mL of Bacterial RNAProtect (Qiagen). The samples were centrifuged again, and the pellets were frozen on dry ice and stored at −80 °C until RNA extraction. The processed cell pellets were thawed on ice and resuspended in 200 µL of lysis buffer (10 mM Tris, 1 mM EDTA, 5 mg/mL lysozyme, 12.5 µg/mL proteinase K [pH 8.0]) and incubated at room temperature for 10 min. The RNA was extracted via the Qiagen RNeasy Mini kit, treated with TURBO DNase in a total volume of 100 µL at room temperature for 30 min, and extracted again using an RNeasy Mini kit. RNA-seq analysis was conducted by the Yale Center for Genome Analysis. Sequences were aligned to the K. oxytoca ATCC 8724 genome (NC_016612.1). Differential expression analysis was performed through DESeq2 and pathway enrichment analysis was performed through the Funage-Pro web-based platform.

[2] = molecular target: T1, HRH1 (Homo sapiens, UniProt P35367); assay: PRESTO-Tango GPCR screen and dose-response; format: cell-based; conditions: for HRH1 dose-response raw reporter signal (Fig. 5b source data): replicate wells
T1 construct: expressed in transfected cells; host or cells: HTLA cells (HEK293 line stably expressing β-arrestin-TEV and tTA-Luciferase)
T1 sequence (P35367 whole entry): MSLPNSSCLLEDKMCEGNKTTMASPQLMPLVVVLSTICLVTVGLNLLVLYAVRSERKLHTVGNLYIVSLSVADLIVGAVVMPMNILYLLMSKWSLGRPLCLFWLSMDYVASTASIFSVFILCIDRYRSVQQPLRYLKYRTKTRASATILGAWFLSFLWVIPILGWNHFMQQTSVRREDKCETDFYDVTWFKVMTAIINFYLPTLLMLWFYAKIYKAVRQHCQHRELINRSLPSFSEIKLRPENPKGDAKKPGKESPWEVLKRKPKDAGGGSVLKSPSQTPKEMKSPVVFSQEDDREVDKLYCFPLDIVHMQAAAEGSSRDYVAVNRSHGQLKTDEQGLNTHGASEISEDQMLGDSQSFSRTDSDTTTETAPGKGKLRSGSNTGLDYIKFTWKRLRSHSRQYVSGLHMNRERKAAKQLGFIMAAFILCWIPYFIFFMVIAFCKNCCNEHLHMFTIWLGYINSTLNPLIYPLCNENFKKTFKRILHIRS
Experimental: (§1) The PRESTO-Tango analyses were performed as previously published. Briefly, HTLA cells, a HEK293 cell line that stably expresses β-arrestin-TEV and tTA-Luciferase (a kind gift from Gilad Barnea, Brown University), were plated in 96-well tissue culture plates (Eppendorf) in DMEM containing 10% FBS and 1% Penicillin/Streptomycin. One day after plating (after reaching approximately 90% confluence), 200 ng per well GPCR-Tango plasmids[37] in 20 μL DMEM were individually mixed with 400 ng polyethylenimine (Polysciences) in an equal volume of DMEM and incubated for 20 min at room temperature before adding the transfection mixture to the HTLA cells. 16-24 h after transfection, medium was replaced with 180 μL fresh DMEM containing 1% Penicillin/Streptomycin and 10 mM HEPES and 20 μL of 3 or 3-Homo to reach a final concentration of 100 μM. Supernatants were aspirated 20 h after stimulation and 50 μl per well of Bright-Glo solution (Promega) diluted 20-fold with PBS containing 20 mM HEPES was added into each well. After 15 min incubation at room temperature, luminescence was quantified using a Spectramax i3x microplate reader (Molecular Devices). Activation fold for each sample was calculated by dividing relative luminescence units (RLU) for each condition by RLUs from PBS control. Dose response curves of each chemical were performed in a similar way with varying the ligand concentration from 10^−4 M to 10^−15 M.

[3] = molecular target: T2, HRH2 (Homo sapiens, UniProt P25021); assay: PRESTO-Tango GPCR screen and dose-response; format: cell-based; conditions: for HRH2 dose-response raw reporter signal (Fig. 5b source data): replicate wells
T2 construct: expressed in transfected cells; host or cells: HTLA cells (HEK293 line stably expressing β-arrestin-TEV and tTA-Luciferase)
T2 sequence (P25021 whole entry): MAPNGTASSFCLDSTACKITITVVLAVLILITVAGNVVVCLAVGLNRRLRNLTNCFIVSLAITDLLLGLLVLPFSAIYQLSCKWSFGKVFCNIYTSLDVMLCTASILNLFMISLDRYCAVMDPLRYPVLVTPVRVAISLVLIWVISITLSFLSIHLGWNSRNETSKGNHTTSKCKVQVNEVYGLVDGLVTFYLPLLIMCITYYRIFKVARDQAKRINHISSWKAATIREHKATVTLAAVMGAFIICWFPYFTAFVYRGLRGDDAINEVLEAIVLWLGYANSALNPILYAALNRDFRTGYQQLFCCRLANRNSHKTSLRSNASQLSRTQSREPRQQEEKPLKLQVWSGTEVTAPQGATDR
Experimental: as §1

[4] = molecular target: T3, HRH3 (Homo sapiens, UniProt Q9Y5N1); assay: PRESTO-Tango GPCR screen and dose-response; format: cell-based; conditions: for HRH3 dose-response raw reporter signal (Fig. 5b source data): replicate wells
T3 construct: expressed in transfected cells; host or cells: HTLA cells (HEK293 line stably expressing β-arrestin-TEV and tTA-Luciferase)
T3 sequence (Q9Y5N1 whole entry): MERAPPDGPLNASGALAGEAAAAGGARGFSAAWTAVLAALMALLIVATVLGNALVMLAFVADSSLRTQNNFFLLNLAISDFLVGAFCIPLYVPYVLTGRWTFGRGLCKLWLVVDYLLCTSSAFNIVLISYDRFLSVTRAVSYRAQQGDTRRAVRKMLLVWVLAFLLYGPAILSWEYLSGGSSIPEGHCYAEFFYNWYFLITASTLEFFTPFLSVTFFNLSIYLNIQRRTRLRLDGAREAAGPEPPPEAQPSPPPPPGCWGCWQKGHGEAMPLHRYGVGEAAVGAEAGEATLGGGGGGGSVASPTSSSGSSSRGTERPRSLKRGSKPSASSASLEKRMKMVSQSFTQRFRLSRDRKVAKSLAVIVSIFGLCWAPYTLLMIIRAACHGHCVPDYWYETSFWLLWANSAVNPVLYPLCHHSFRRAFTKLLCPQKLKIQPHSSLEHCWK
Experimental: as §1

[5] = molecular target: T4, histamine receptor H4 (HRH4) (Homo sapiens, UniProt Q9H3N8); assay: PRESTO-Tango GPCR screen and dose-response; format: cell-based; conditions: for HRH4 dose-response raw reporter signal (Fig. 5b source data): replicate wells
T4 construct: expressed in transfected cells; host or cells: HTLA cells (HEK293 line stably expressing β-arrestin-TEV and tTA-Luciferase)
T4 sequence (Q9H3N8 whole entry): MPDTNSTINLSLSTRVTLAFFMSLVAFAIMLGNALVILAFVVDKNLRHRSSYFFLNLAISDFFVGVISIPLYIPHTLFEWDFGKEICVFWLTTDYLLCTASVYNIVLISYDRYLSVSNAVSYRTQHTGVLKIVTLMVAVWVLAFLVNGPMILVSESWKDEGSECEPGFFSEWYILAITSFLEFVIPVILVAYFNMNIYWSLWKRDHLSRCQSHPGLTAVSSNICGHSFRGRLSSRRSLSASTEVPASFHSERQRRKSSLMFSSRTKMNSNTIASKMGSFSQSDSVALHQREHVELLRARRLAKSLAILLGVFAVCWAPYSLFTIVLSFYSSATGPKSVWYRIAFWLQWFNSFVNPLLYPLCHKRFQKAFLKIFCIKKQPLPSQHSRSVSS
Experimental: as §1

O=C(O)CCc1nc(Cc2ccc(O)cc2)c(CCC(=O)O)nc1Cc1ccc(O)cc1 [compound 6]
number of differentially regulated genes ([1]; one hour, vs DMSO, Padj < 0.05, abs(log2FC) > 1): 201 genes
effect on enterobactin BGC transcription ([1]; vs DMSO control, RNA-seq): increased enterobactin transcription levels
HRH1 dose-response raw reporter signal (Fig. 5b source data) ([2]; Log(10)Conc (M) -4): 49886 and 44465
HRH1 dose-response raw reporter signal (Fig. 5b source data) ([2]; Log(10)Conc (M) -5): 46746 and 44008
HRH1 dose-response raw reporter signal (Fig. 5b source data) ([2]; Log(10)Conc (M) -6): 46048 and 46004
HRH1 dose-response raw reporter signal (Fig. 5b source data) ([2]; Log(10)Conc (M) -7): 45284 and 44521
HRH1 dose-response raw reporter signal (Fig. 5b source data) ([2]; Log(10)Conc (M) -8): 43675 and 43707
HRH1 dose-response raw reporter signal (Fig. 5b source data) ([2]; Log(10)Conc (M) -9): 43412 and 43896
HRH1 dose-response raw reporter signal (Fig. 5b source data) ([2]; Log(10)Conc (M) -10): 42790 and 43339
HRH1 dose-response raw reporter signal (Fig. 5b source data) ([2]; Log(10)Conc (M) -11): 45349 and 45281
HRH1 dose-response raw reporter signal (Fig. 5b source data) ([2]; Log(10)Conc (M) -12): 45812 and 46139
HRH1 dose-response raw reporter signal (Fig. 5b source data) ([2]; Log(10)Conc (M) -13): 46567 and 45803
HRH1 dose-response raw reporter signal (Fig. 5b source data) ([2]; Log(10)Conc (M) -14): 45579 and 46637
HRH1 dose-response raw reporter signal (Fig. 5b source data) ([2]; Log(10)Conc (M) -15): 40874 and 41360
activity towards HRH1 ([2]; PRESTO-Tango dose-response): no activity
HRH2 dose-response raw reporter signal (Fig. 5b source data) ([3]; Log(10)Conc (M) -4): 68 and 65 and 32
HRH2 dose-response raw reporter signal (Fig. 5b source data) ([3]; Log(10)Conc (M) -5): 50 and 41 and 77
HRH2 dose-response raw reporter signal (Fig. 5b source data) ([3]; Log(10)Conc (M) -6): 59 and 62 and 44
HRH2 dose-response raw reporter signal (Fig. 5b source data) ([3]; Log(10)Conc (M) -7): 27 and 50 and 35
HRH2 dose-response raw reporter signal (Fig. 5b source data) ([3]; Log(10)Conc (M) -8): 65 and 80 and 47
HRH2 dose-response raw reporter signal (Fig. 5b source data) ([3]; Log(10)Conc (M) -9): 38 and 97 and 71
HRH2 dose-response raw reporter signal (Fig. 5b source data) ([3]; Log(10)Conc (M) -10): 50 (2×) and 62
HRH2 dose-response raw reporter signal (Fig. 5b source data) ([3]; Log(10)Conc (M) -11): 56 and 27 and 53
HRH2 dose-response raw reporter signal (Fig. 5b source data) ([3]; Log(10)Conc (M) -12): 53 and 35 and 24
HRH2 dose-response raw reporter signal (Fig. 5b source data) ([3]; Log(10)Conc (M) -13): 59 and 53 and 35
HRH2 dose-response raw reporter signal (Fig. 5b source data) ([3]; Log(10)Conc (M) -14): 71 and 53 (2×)
HRH2 dose-response raw reporter signal (Fig. 5b source data) ([3]; Log(10)Conc (M) -15): 29 and 15 and 32
activity towards HRH2 ([3]; PRESTO-Tango dose-response): no activity
HRH3 dose-response raw reporter signal (Fig. 5b source data) ([4]; Log(10)Conc (M) -4): 162 and 59 and 171
HRH3 dose-response raw reporter signal (Fig. 5b source data) ([4]; Log(10)Conc (M) -5): 94 and 85 and 156
HRH3 dose-response raw reporter signal (Fig. 5b source data) ([4]; Log(10)Conc (M) -6): 136 and 91 and 133
HRH3 dose-response raw reporter signal (Fig. 5b source data) ([4]; Log(10)Conc (M) -7): 124 and 91 and 106
HRH3 dose-response raw reporter signal (Fig. 5b source data) ([4]; Log(10)Conc (M) -8): 133 and 85 and 109
HRH3 dose-response raw reporter signal (Fig. 5b source data) ([4]; Log(10)Conc (M) -9): 165 and 142 and 209
HRH3 dose-response raw reporter signal (Fig. 5b source data) ([4]; Log(10)Conc (M) -10): 200 and 100 and 109
HRH3 dose-response raw reporter signal (Fig. 5b source data) ([4]; Log(10)Conc (M) -11): 133 and 100 and 147
HRH3 dose-response raw reporter signal (Fig. 5b source data) ([4]; Log(10)Conc (M) -12): 115 (2×) and 142
HRH3 dose-response raw reporter signal (Fig. 5b source data) ([4]; Log(10)Conc (M) -13): 139 and 91 and 133
HRH3 dose-response raw reporter signal (Fig. 5b source data) ([4]; Log(10)Conc (M) -14): 127 and 83 and 121
HRH3 dose-response raw reporter signal (Fig. 5b source data) ([4]; Log(10)Conc (M) -15): 112 and 91 and 62
activity towards HRH3 ([4]; PRESTO-Tango dose-response): no activity
HRH4 dose-response raw reporter signal (Fig. 5b source data) ([5]; Log(10)Conc (M) -5): 295 and 312
HRH4 dose-response raw reporter signal (Fig. 5b source data) ([5]; Log(10)Conc (M) -6): 348 and 448
HRH4 dose-response raw reporter signal (Fig. 5b source data) ([5]; Log(10)Conc (M) -7): 304 and 348
HRH4 dose-response raw reporter signal (Fig. 5b source data) ([5]; Log(10)Conc (M) -8): 271 and 366
HRH4 dose-response raw reporter signal (Fig. 5b source data) ([5]; Log(10)Conc (M) -9): 318 and 324
HRH4 dose-response raw reporter signal (Fig. 5b source data) ([5]; Log(10)Conc (M) -10): 271 and 230
HRH4 dose-response raw reporter signal (Fig. 5b source data) ([5]; Log(10)Conc (M) -11): 342 and 265
HRH4 dose-response raw reporter signal (Fig. 5b source data) ([5]; Log(10)Conc (M) -12): 298 and 248
HRH4 dose-response raw reporter signal (Fig. 5b source data) ([5]; Log(10)Conc (M) -13): 318 and 271
HRH4 dose-response raw reporter signal (Fig. 5b source data) ([5]; Log(10)Conc (M) -14): 374 and 307
HRH4 dose-response raw reporter signal (Fig. 5b source data) ([5]; Log(10)Conc (M) -15): 242 and 254
activity towards HRH4 ([5]; PRESTO-Tango dose-response): no activity
